Columns and labels:
Mas receptor = conditions: Santos et al., PNAS 2003; cited from earlier work
[1] = molecular target: T1, angiotensin converter enzyme (ACE) (Rattus norvegicus, UniProt P47820); assay: Plasmatic ACE activity, fluorimetric method with Hip-His-Leu substrate; format: biochemical, Wistar rats; conditions: Wistar rat plasma
T1 construct: from tissue; host or cells: plasma of Wistar rats
T1 sequence (P47820 36-1238 limits assumed): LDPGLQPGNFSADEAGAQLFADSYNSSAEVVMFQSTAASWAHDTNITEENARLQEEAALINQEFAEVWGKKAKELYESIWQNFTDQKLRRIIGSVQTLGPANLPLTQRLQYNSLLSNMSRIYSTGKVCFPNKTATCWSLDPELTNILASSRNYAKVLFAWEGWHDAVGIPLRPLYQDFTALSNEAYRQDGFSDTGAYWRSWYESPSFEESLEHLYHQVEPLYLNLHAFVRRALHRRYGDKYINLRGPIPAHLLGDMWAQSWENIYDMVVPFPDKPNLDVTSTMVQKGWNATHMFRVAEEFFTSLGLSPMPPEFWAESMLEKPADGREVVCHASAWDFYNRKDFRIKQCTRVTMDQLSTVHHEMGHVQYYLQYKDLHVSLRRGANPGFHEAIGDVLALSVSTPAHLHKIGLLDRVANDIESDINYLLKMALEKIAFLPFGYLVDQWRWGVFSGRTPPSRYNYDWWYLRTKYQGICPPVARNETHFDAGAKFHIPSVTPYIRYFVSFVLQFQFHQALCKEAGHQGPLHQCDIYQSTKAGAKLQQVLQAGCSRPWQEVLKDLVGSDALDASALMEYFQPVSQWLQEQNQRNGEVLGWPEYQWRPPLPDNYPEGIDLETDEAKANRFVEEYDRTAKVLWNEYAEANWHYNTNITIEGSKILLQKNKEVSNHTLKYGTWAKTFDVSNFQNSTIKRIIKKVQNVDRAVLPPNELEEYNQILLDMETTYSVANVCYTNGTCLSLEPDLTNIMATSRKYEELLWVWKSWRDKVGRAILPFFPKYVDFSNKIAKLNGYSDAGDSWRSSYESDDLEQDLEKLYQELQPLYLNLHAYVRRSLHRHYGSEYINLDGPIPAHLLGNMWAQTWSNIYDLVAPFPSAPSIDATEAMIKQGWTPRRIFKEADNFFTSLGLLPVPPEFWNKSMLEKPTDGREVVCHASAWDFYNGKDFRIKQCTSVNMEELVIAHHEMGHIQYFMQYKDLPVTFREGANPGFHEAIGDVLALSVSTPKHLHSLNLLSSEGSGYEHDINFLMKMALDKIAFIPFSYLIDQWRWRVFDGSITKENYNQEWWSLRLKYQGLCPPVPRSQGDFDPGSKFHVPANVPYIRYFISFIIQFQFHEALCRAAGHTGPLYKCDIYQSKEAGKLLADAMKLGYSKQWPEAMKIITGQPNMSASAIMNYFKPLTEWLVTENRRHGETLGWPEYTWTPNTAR
Procedure: The plasmatic activity of ACE was measured by the fluorimetric method using Hip-His-Leu as substrate, as previously described (Santos, R. A. S. et al., Hypertension, 7:244-52, (1985)). Plasma aliquots (10 μL) of Wistar rats were incubated with a […] solution containing a 1 mM substrate (Hip-His-Leu) and 0.4 M of sodium borate, 0.9 M NaCl (pH=8.3) for 15 minutes at 37° C. The reaction was halted by adding 1.2 mL of NaOH at 0.34 M and […] of orthoftaldehyde (20 mg/mL in methanol). After 10 minutes at environment temperature, […] of HCl at 3 N was added. Later on, after a 5-minute 800×g centrifugation, the floating solution fluorescence was measured (a 365 nm excitation and a 495 nm emission). The blank was prepared by inverting the addition order of plasma and NaOH. A 0.5 to 20 nmol curve, containing the product (His-Leu) resulting of the substrate break (Hip-His-Leu) by ACE plasmatic activity, was prepared in each assay. In order to test the inhibition effect of ACE by the PEPTIDEs Ang-(1-7) and Ala^1-Ang-(1-7), 3.3×10^−7 or 3.3×10^−6 M of each PEPTIDE was added before the plasma addition. […] The percentage of enzymatic activity inhibition was estimated in function of the maximum activity obtained.

[2] = system: aorta rings of Mas−/− mice; assay: Vasorelaxation in precontracted aorta rings of mice with genetic deletion of the Mas receptor (Mas-/-); format: cell-based, mice (C57/BI-6 and FVB/N); conditions: both lineages C57/BI-6 and FVB/N, precontracted with fenilefrine 0.1 μM
Procedure: This example describes the vasodilating effect of Ala^1-Ang-(1-7), independently of the Mas receptor, on aorta rings of mice with genetic deletion of the Mas receptor (Mas−/−) and wild-type mice (Mas+/+) from two different lineages, C57/BI-6 and FVB/N.
The original rings of the descending thoracic aorta (2 mm), free from adipose tissue and connective tissue, were incubated in gasified solution (95% O2 and 5% CO2) of Krebs-Henseleit (mmol/L): NaCl 110.8, KCl 5.9, NaHCO3 25.0, MgSO4 1.07, CaCl2 2.49, NaH2PO4 2.33 and glucose 11.51, under a temperature of 37° C. and a 0.5 g tension, being equilibrated for 1 hour. The functional presence of endothelium was tested by its relaxing capacity produced by acetylcholine [ACh] (10 μM) on vessels precontracted with fenilefrine (0.3 μM). Only the vessels showing relaxation above 70% of extended contraction produced by fenilefrine were taken into account. […]
The aorta rings of mice Mas−/− and Mas+/+ from both lineages (C57/BI-6 and FVB/N) were precontracted to achieve the same tension level (approximately a 1.0 g tension) at a submaximum concentration of fenilefrine (0.1 μM). […] The vasodilating effects of Ala^1-Ang-(1-7) and Ang-(1-7) were expressed as a percentage of relaxation relative to the maximum contraction induced by fenilefrine. […]

Row | ACE inhibition ([1]; peptide 3.3×10^−6 M) | ACE inhibition ([1]; peptide 3.3×10^−7 M) | Substance | Kd (Mas receptor) | vasodilating response [2]
1 | 85.8% | 42.4% | Asp^1-Arg^2-Val^3-Tyr^4-Ile^5-His^6-Pro^7 [Ang-(1-7)] | 0.33 nM | absence
2 | 98.3% | 76.3% | Ala^1-Arg^2-Val^3-Tyr^4-Ile^5-His^6-Pro^7 [Ala^1-Ang-(1-7)] | – | totally preserved

Source: patent US9974825B2, “Peptides Des-[Asp1]-[Ala1], angiotensin-(1-7) agonist and pharmaceutical compositions for the treatment of diseases” (UNIVERSIDADE FEDERAL DE MINAS GERAIS, priority 2008, dated 2018)
